The values that follow come from US11795147B2, “Modulators of complex I” (Boehringer Ingelheim International GmbH, priority 2019, dated 2023).

SMILES strings stand for the structures.

The first test addresses Complex I. Put plainly: Assay A: Determination of Complex I mediated ROS-inhibition (CI). The format is biochemical. The conditions noted are these: read-out: CI IC50; ROS generation by Complex I purified from bovine heart, Amplex Red/horse radish peroxidase readout, 8 point concentration-response.
In the case of `CC(C)Nc1ccc2c(c1)/C(=C1\CN(C3CCOCC3)CCN1)C(=O)N2C1CCOCC1` [Compound 24], the half-inhibitory concentration (IC50) (in general, the concentration at which inhibition is half-maximal) was determined as 0.048 µM.
For the compound `O=C1/C(=C2/CCN(C3COC3)CCN2)c2cc(N3CCCC3)ccc2N1C1CCOCC1` [Compound 121], the IC50 was 0.075 µM.
Turning to `CC1CCCC1Nc1ccc2c(c1)/C(=C1\COCCN1)C(=O)N2C(C)C` (stereo not drawn) [Compound 124], the IC50 worked out at 0.259 µM.
Take `CC1OCCC1Nc1ccc2c(c1)/C(=C1\COCCN1)C(=O)N2C(C)C` (stereo not drawn) [Compound 125]: the IC50 is 0.05 µM.
As for `CC(Nc1ccc2c(c1)/C(=C1\COCCN1)C(=O)N2C(C)C)c1cncnc1` (stereo not drawn) [Compound 126], the IC50 turned out to be 0.085 µM.
As for `CC(C)N1C(=O)/C(=C2/COCCN2)c2cc(NCC3(C)COC3)ccc21` [Compound 127], the IC50 is 0.082 µM.
Same read-out and setting: for `CC(C)N1C(=O)/C(=C2/CCOCCN2)c2cc(N3C(C)CCC3C)ccc21` (stereo not drawn) [Compound 128] the value was 0.044 µM; for `CC(C)N1C(=O)/C(=C2/CCOCCN2)c2cc(N3CCCC3)ccc21` [Compound 129], 0.702 µM; for `CC(C)N1C(=O)/C(=C2/COCCN2)c2cc(N3CCCC3)ccc21` [Compound 130], 0.877 µM.
Turning to `O=C1/C(=C2/COCCN2)c2cc(NC3CCC3)ccc2N1C1CCOCC1` [Compound 132], the IC50 stood at 0.055 µM.
For `CC(C)Nc1ccc2c(c1)/C(=C1\CCCCN1)C(=O)N2C(C)C` [Compound 133], the IC50 turned out to be 0.049 µM.
Turning to `CC(C)Nc1ccc2c(c1)/C(=C1\CN(C3CCOCC3)CCN1)C(=O)N2C(C)C` [Compound 134], the IC50 amounted to 0.062 µM.
For the compound `CC(C)Nc1ccc2c(c1)/C(=C1\COCCN1)C(=O)N2C1COC1` [Compound 135], the IC50 is 0.082 µM.
For `CCC(CC)Nc1ccc2c(c1)/C(=C1\COCCN1)C(=O)N2C1COC1` [Compound 136], the half-maximal inhibitory concentration (IC50) came to 0.213 µM.
Turning to `COCC(C)Nc1ccc2c(c1)/C(=C1\COCCN1)C(=O)N2C1COC1` (stereo not drawn) [Compound 137], the IC50 is 0.138 µM.
Consider `CC(C)Nc1ccc2c(c1)/C(=C1\COC3(CCN(C(C)C)CC3)CN1)C(=O)N2C(C)C` [Compound 138], for which the IC50 worked out at 0.206 µM.
On the same count and under the same terms, for `CC(C)N1CCC2(CC1)CN/C(=C1\C(=O)N(C(C)C)c3ccc(N4C(C)CCC4C)cc31)CO2` (stereo not drawn) [Compound 139] the value was 0.308 µM.
For the compound `O=C1/C(=C2/CCOCCN2)c2cc(NC3CCOC3)ccc2N1C1CCOCC1` (stereo not drawn) [Compound 140], the IC50 worked out at 0.084 µM.
Still for that read-out and setting: for `O=C1/C(=C2/COCCCN2)c2cc(NC3CCOC3)ccc2N1C1CCOCC1` (stereo not drawn) [Compound 141] the value was 0.104 µM; for `CC1CCC(C)N1c1ccc2c(c1)/C(=C1\COCCCN1)C(=O)N2C1CCOCC1` (stereo not drawn) [Compound 142], 0.116 µM.
Consider `CC(Nc1ccc2c(c1)/C(=C1\COCCN1)C(=O)N2C(C)C)c1ccncc1` (stereo not drawn) [Compound 143], for which the concentration for half-maximal inhibition (IC50) came out at 0.079 µM.
Regarding `CC(Nc1ccc2c(c1)/C(=C1\COCCN1)C(=O)N2C(C)C)c1nccs1` (stereo not drawn) [Compound 144], the IC50 was 0.049 µM.
Consider `CC(C)N1C(=O)/C(=C2/COCCN2)c2cc(NCC(C)(C)C)ccc21` [Compound 145], for which the IC50 was 0.183 µM.
Consider `CC(Nc1ccc2c(c1)/C(=C1\COCCN1)C(=O)N2C1CCOCC1)c1cnccn1` (stereo not drawn) [Compound 146], for which the IC50 is 0.066 µM.
Turning to `CC(Nc1ccc2c(c1)/C(=C1\COCCN1)C(=O)N2C1CCOCC1)c1cncnc1` (stereo not drawn) [Compound 147], the IC50 came to 0.069 µM.
The same measure, in the same setting: for `CC(Nc1ccc2c(c1)/C(=C1\COCCN1)C(=O)N2C1CCOCC1)C1CCC1` (stereo not drawn) [Compound 148] the value was 0.039 µM.
Take `COC1COCCC1Nc1ccc2c(c1)/C(=C1\COCCN1)C(=O)N2C1CCOCC1` (stereo not drawn) [Compound 149]: the 50% inhibitory concentration (IC50) is 0.161 µM.
Turning to `CN1CCC(Nc2ccc3c(c2)/C(=C2\COCCN2)C(=O)N3C2CCOCC2)CC1` [Compound 150], the IC50 is 0.048 µM.
For the compound `O=C1/C(=C2/COCCN2)c2cc(NCC3CCOC3)ccc2N1C1CCOCC1` (stereo not drawn) [Compound 151], the IC50 came to 0.232 µM.
On the same count and under the same terms, for `CN1C(=O)/C(=C2/CCN(C(=O)OCc3ccccc3)CCN2)c2cc(N3CCCC3)ccc21` [Compound 152] the value was 0.477 µM; for `CN1C(=O)/C(=C2/COCCN2)c2cc(NC3CCC3)ccc21` [Compound 154], 0.193 µM; for `CN1C(=O)/C(=C2/CCN(C3CCOC3)CCN2)c2cc(N3CCCC3)ccc21` (stereo not drawn) [Compound 155], 0.264 µM.
On the same count and under the same terms, for `CC1CCC(C)N1c1ccc2c(c1)/C(=C1\COCCN1)C(=O)N2C1CCOCC1` (stereo not drawn) [Compound 156] the value was 0.077 µM; for `CC(C)N1C(=O)C(=C2CCOCC2)c2cc(N)ccc21` [Compound 157], 0.691 µM; for `CC(C)N1C(=O)/C(=C2/CCCCN2)c2cc(N3CCOCC3)ccc21` [Compound 158], 0.243 µM.
With `CC(=O)N1CCN/C(=C2\C(=O)N(C(C)C)c3ccc(NC(C)C)cc32)C1` [Compound 159], the 50% inhibitory concentration (IC50) came out at 0.12 µM.
Turning to `CC(C)N1C(=O)C(=C2CCOCC2)c2cc(NC3CCOC3)ccc21` (stereo not drawn) [Compound 160], the half-maximal inhibitory concentration (IC50) is 0.829 µM.
Still for that read-out and setting: for `CC(C)N1C(=O)/C(=C2/CCCN2C)c2cc(NC3CCC3)ccc21` [Compound 161] the value was 0.957 µM; for `CC1CCC(C)N1c1ccc2c(c1)/C(=C1\COCCN1)C(=O)N2C1CCOC1` (stereo not drawn) [Compound 162], 0.464 µM.
For the compound `CC(C)Nc1ccc2c(c1)/C(=C1\COCCN1)C(=O)N2C1CCOC1` (stereo not drawn) [Compound 163], the IC50 was 0.172 µM.
Turning to `CC(C)Nc1ccc2c(c1)/C(=C1\CCN(C(C)C)CCN1)C(=O)N2C1CCOCC1` [Compound 164], the IC50 worked out at 0.172 µM.
Take `CC(C)Nc1ccc2c(c1)/C(=C1\CC3(CN1)COC3)C(=O)N2C1CCOCC1` [Compound 165]: the IC50 was 0.181 µM.
Consider `CC(C)N1C(=O)/C(=C2/COCCN2)c2cc(N3CCOCC3)ccc21` [Compound 166], for which the IC50 worked out at 0.075 µM.
Same read-out and setting: for `CC(C)Nc1ccc2c(c1)/C(=C1\COCCCN1)C(=O)N2C1CCOCC1` [Compound 167] the value was 0.065 µM; for `O=C1/C(=C2/COCCN2)c2cc(NC3CCOC3)ccc2N1C1CCOC1` (stereo not drawn) [Compound 168], 0.041 µM; for `O=C(CCO)Nc1ccc2c(c1)/C(=C1\COCCN1)C(=O)N2C1CCOC1` (stereo not drawn) [Compound 169], 0.944 µM.
As for `CC(=O)N1CC[C@H](N2C(=O)/C(=C3/COCCN3)c3cc(NC(C)C)ccc32)C1` [Compound 170], the IC50 amounted to 0.023 µM.
With `CCC(CC)Nc1ccc2c(c1)/C(=C1\COCCN1)C(=O)N2C(C)C` [Compound 171], the IC50 was 0.206 µM.
The same measure, in the same setting: for `CC(=O)N1CCC(Nc2ccc3c(c2)/C(=C2\COCCN2)C(=O)N3C(C)C)CC1` [Compound 172] the value was 0.078 µM; for `CC(C)CNc1ccc2c(c1)/C(=C1\COCCN1)C(=O)N2C(C)C` [Compound 173], 0.367 µM.
Regarding `CC1OCCC1Nc1ccc2c(c1)/C(=C1\COCCN1)C(=O)N2C1CCOCC1` (stereo not drawn) [Compound 174], the concentration for half-maximal inhibition (IC50) amounted to 0.039 µM.
Regarding `O=C1/C(=C2/COCCN2)c2cc(NC3COC3)ccc2N1C1CCOCC1` [Compound 175], the concentration for half-maximal inhibition (IC50) was determined as 0.097 µM.

Another test has as its system HT-22 cells.
Assay: not given
In kind it is cell-based, mice. The conditions noted are these: Mus musculus, HT-22, 16 h, read-out: HT22 IC50.
Regarding `CCOC(=O)N1CCC(N2C(=O)/C(=C3/COCCN3)c3cc(N4C(C)CCC4C)ccc32)CC1` (stereo not drawn) [Compound 11], the IC50 was 0.038 µM.
As for `Nc1ccc2c(c1)/C(=C1/NCCN(C(=O)OCc3ccccc3)C1O)C(=O)N2C1CCNCC1` (stereo not drawn) [Compound 87], the half-maximal inhibitory concentration (IC50) turned out to be 1 µM.
In the case of `CC(C)Nc1ccc2c(c1)/C(=C1\COCCN1)C(=O)N2C1CCN(C(C)C)CC1` [Compound 92], the IC50 was 0.044 µM.
Same read-out and setting: for `CN1CCC(N2C(=O)/C(=C3/CCCN3)c3cc(N(C)C)ccc32)CC1` [Compound 109] the value was 0.16 µM.

Staying with this test, now noted: Mus musculus; protection of HT-22 cells from glutamate (5 mM) induced cell death, 16 hours, Alamar Blue viability; read-out: HT22 IC50.
Regarding `CC(C)Nc1ccc2c(c1)/C(=C1\CN(C3CCOCC3)CCN1)C(=O)N2C1CCOCC1` [Compound 24], the IC50 worked out at 0.123 µM.
